Laboratory results published in patent US20250282844A1, “METHODS FOR CONTROLLING IMMUNE CELL ACTIVITY” (BIOSCEPTRE (AUST) PTY LTD, priority 2021, published 2025).

Tested on: JeKo-1 cells
Assay: Co-culture of T cells (unmodified or expressing nfP2X7 CAR) with JeKo-1 cells, with or without blocking peptide
Format: cell-based
Details: FIG. 3
Experimental: More specifically, T cells (either unmodified or expressing nfP2X7 CAR) were cultured with JeKo-1 cells at an ET ratio of 5 to 1. Blocking was performed using peptide variant 2 at 5 μg/mL.
On day 5 of co-culture the cell counts were measured and evaluated for total JeKo-1 cell count. The total number of JeKo-1 cells added in the experiment was 20,000 on day 1 and day 3 of the experiment (therefore the total amount of added cells was 40,000 JeKo-1 per condition).
Addition of the blocking peptide variant 2 at 5 ug/mL reversed this such that after 5 days, 40,000 JeKo-1 cells were present in culture.

## DFPGHNYTTRNILPGLNITSTFHKTSGSGKGGGGS (E200_extended peptide 17v12 (35 aa) + linker) [peptide variant 2]
T cells expressing nfP2X7 CAR, ET 5 to 1, peptide at 5 ug/mL, day 5 of co-culture, 40,000 JeKo-1 added in total
  total JeKo-1 cell count: 40,000 cells
T cells that do not express nfP2X7 CAR (60,000 cells after 5 days without peptide), effect of adding blocking peptide
  total JeKo-1 cell count: not changed
